Read-outs that look alike come from different tables or passages of the source.
Experiments:
HIV1 strain NL4-3 = format: cell-based; details: normalized mean of HIV1 replication readout
HCV replicon = format: cell-based; details: normalized mean of HCV replicon readout
[1] = system: F. novicida (strain U112); format: cell-based
influenza A H1N1 virus = details: 48 hr post-treatment, A549
EBV = details: normalized mean of EBV replication readout

Substance	HIV1 Norm MEAN (HIV1 strain NL4-3)	HCV Norm MEAN (HCV replicon)	Francisella novicida Norm AUC [1]	Neuraminidase activity normalized to vehicle (influenza A H1N1 virus; 200 µM peptide)	Neuraminidase activity normalized to vehicle (influenza A H1N1 virus; 0,823 µM peptide)	Neuraminidase activity normalized to vehicle (influenza A H1N1 virus; 22,2 µM peptide)	Neuraminidase activity normalized to vehicle (influenza A H1N1 virus; 2,4691 µM peptide)	Neuraminidase activity normalized to vehicle (influenza A H1N1 virus; 7,4074 µM peptide)	Neuraminidase activity normalized to vehicle (influenza A H1N1 virus; 66,6667 µM peptide)	EBV Norm MEAN (EBV)	HIV1 Norm MEAN (HIV1 strain NL4-3; peptide screen)	HCV Norm MEAN (HCV replicon; peptide screen)	EBV Norm MEAN (EBV; peptide screen)
PTAPP [CPEP49]	1.171	0.1885	1.057	0,7922	0,6686	0,8389	0,6943	0,7716	0,9061	0.9513			
RTYGTWEDLFCDESL [CPEP128]			0.8745	0,6933	0,9138	1,0305	1,0131	0,9772	1,0247		0.383	0.6752	1.318
CPEP61: peptide of the viral peptide library; sequence page not shown (KRRKSGAKRR)	1.461	0.1619	0.6493	0,867	1,0166	1,0577	1,0813	0,9769	1,1022	3.372			
IVISDSEEE [CPEP121]	0.9208	0.7416	1.126	1,0697	1,0507	1,0096	1,0097	0,9639	1,0552	1.138			
PLDLS [CPEP54]	1.112	0.1712	0.4272	1,1329	1,0199	0,844	1,1627	0,6425	1,0456	1.129			
WGCSGKLICTTTVPW [CPEP84]			1.224	0,0819	0,9093	0,9299	0,9765	0,9455	0,3888		0.7328	0.9118	0.6808
GARASVLS [CPEP108]	0.3412	0.178	1.458	0,7289	0,7112	0,9027	0,8479	0,9625	0,8429	0.7452			
LTMVI [CPEP12]	1.936	0.1977	1.651	0,732	0,7557	0,8312	0,7112	0,7657	0,8968	1.608			
